Measurements: patent US20060069132A1, “Azolecarboxamide herbicides” (priority 2004, published 2006)

Legend:
barnyardgrass [1] = test: Test A pre-/postemergence herbicide test; format: in vivo, Echinochloa crus-galli
Summary of the method: (§1)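 Greenhouse injury scoring (0–100, complete control = 100) at approximately ten days follows simultaneous pre- and postemergence application. Soil received a directed spray after seeding; seedlings of 2–10 cm at the one- to two-leaf stage were sprayed to runoff.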

large crabgrass = test: Test A pre-/postemergence herbicide test; format: in vivo, Digitaria sanguinalis
Summary of the method: as §1

giant foxtail = test: Test A pre-/postemergence herbicide test; format: in vivo, Setaria faberi
Summary of the method: as §1

redroot pigweed = test: Test A pre-/postemergence herbicide test; format: in vivo, Amaranthus retroflexus
Summary of the method: as §1

bermudagrass = test: Test C pre-/postemergence herbicide test; format: in vivo, Cynodon dactylon
Summary of the method: (§2)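 Pre/post spray; non-phytotoxic solvent + surfactant. Post-timing 1–4 leaves, 2–18 cm. Read-out: visual % control vs untreated, day 12–14, greenhouse.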

Surinam grass = test: Test C pre-/postemergence herbicide test; format: in vivo, Urochloa decumbens; details: for Surinam Grass plant response rating: 500 g ai/ha
Summary of the method: as §2

woolly cupgrass = test: Test C pre-/postemergence herbicide test; format: in vivo, Eriochloa villosa; details: for Cupgrass, Woolly plant response rating: 500 g ai/ha
Summary of the method: as §2

johnsongrass = test: Test C pre-/postemergence herbicide test; format: in vivo, Sorghum halepense; details: for Johnsongrass plant response rating: 500 g ai/ha
Summary of the method: as §2

morningglory = test: Test C pre-/postemergence herbicide test; format: in vivo, Ipomoea coccinea; parameters: key to Plant response rating, Morningglory: 0 = no effect, 100 = complete control; details: for Morningglory plant response rating: 500 g ai/ha
Summary of the method: as §2

barnyardgrass [2] = test: Test C flooded paddy test; format: in vivo, Echinochloa crus-galli; details: for Plant response rating, Barnyardgrass: visual rating after 12 to 14 days
Summary of the method: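 Postemergence sprays were applied to plants 2 to 18 cm tall (1- to 4-leaf stage); in the flooded paddy test, barnyardgrass was grown to the 2-leaf stage. After 12 to 14 days in a greenhouse, injury was visually rated against untreated controls on a 0–100 scale (100 = complete control).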

[3] = Postemergence, 250 g ai/ha, 0 to 100 scale, 0 no effect, 100 complete control
[4] = Postemergence, 1000 g ai/ha, 0 to 100 scale, 0 no effect, 100 complete control
[5] = Preemergence, 1000 g ai/ha, visual rating, 0 to 100 scale (0 no effect, 100 complete control)
[6] = preemergence, 250 g ai/ha, visual injury, 0 to 100 scale (0 no effect, 100 complete control)
[7] = 125 g ai/ha, scale 0-100, preemergence
[8] = 250 g ai/ha, scale 0 to 100 (0 no effect, 100 complete control), visual, 12 to 14 days, preemergence
[9] = Postemergence, 500 g ai/ha, scale 0 to 100
[10] = Postemergence, 125 g ai/ha, scale 0 to 100, 0 no effect, 100 complete control
[11] = Postemergence, 250 g ai/ha, scale 0 to 100
[12] = Preemergence, 500 g ai/ha, scale 0 to 100, 0 no effect, 100 complete control
[13] = postemergence, 62 g ai/ha, scale 0 to 100
[14] = Postemergence, 250 g ai/ha, scale 0 to 100, 0 no effect, 100 complete control
[15] = Preemergence, scale 0 to 100, 0 no effect, 100 complete control
[16] = postemergence, 125 g ai/ha, scale 0 to 100
[17] = 62 g ai/ha, scale 0 to 100 (0 no effect, 100 complete control)
[18] = 125 g ai/ha, scale of 0 to 100, 0 is no effect, 100 is complete control
[19] = 250 g ai/ha, scale 0 to 100 (0 no effect, 100 complete control)
[20] = 500 g ai/ha, scale 0 to 100 (0 no effect, 100 complete control)
[21] = Postemergence, 500 g ai/ha, 0 to 100 scale, 0 no effect, 100 complete control
[22] = Postemergence, 2000 g ai/ha, 0 to 100 scale, 0 no effect, 100 complete control
[23] = Preemergence, 500 g ai/ha, visual rating, 0 to 100 scale (0 no effect, 100 complete control)
[24] = Preemergence, 2000 g ai/ha, 0 to 100 scale, 0 no effect, 100 complete control

With `CCNC(=O)c1cccc(NC(=O)c2cc(C(C)(C)C)nn2CC(F)(F)F)c1` [Compound 31] the “Barnyardgrass plant response rating” value (barnyardgrass [1]; [3]) was 65, the “Plant response rating, Barnyardgrass” value (barnyardgrass [1]; [4]) was 75 and the “Barnyardgrass plant response rating” value (barnyardgrass [1]; [5]) was 80. The “Barnyardgrass plant response rating” value (barnyardgrass [1]; [6]) was 40, the “Crabgrass, Large plant response rating” value (large crabgrass; [3]) was 30 and the “Plant response rating, Crabgrass, Large” value (large crabgrass; [4]) was 40. The “Crabgrass, Large plant response rating” value (large crabgrass; [5]) was 45, the “Crabgrass, Large plant response rating” value (large crabgrass; [6]) was 20 and the “Foxtail, Giant plant response rating” value (giant foxtail; [3]) was 45. For the same molecule, the “Plant response rating, Foxtail, Giant” value (giant foxtail; [4]) was 70, the “Foxtail, Giant plant response rating” value (giant foxtail; [5]) was 50 and the “Foxtail, Giant plant response rating” value (giant foxtail; [6]) was 20. The “Pigweed plant response rating” value (redroot pigweed; [3]) was 55, the “Plant response rating, Pigweed” value (redroot pigweed; [4]) was 80 and the “Pigweed plant response rating” value (redroot pigweed; [5]) was 80. For the same molecule, the “Pigweed plant response rating” value (redroot pigweed; [6]) was 45, the “Plant response rating (0 = no effect, 100 = complete control), Bermudagrass” value (bermudagrass; 62 g ai/ha, preemergence) was 20 and the “Plant response rating, Bermudagrass” value (bermudagrass; [7]) was 90. The “Plant response rating, Bermudagrass” value (bermudagrass; [8]) was 100, the “Bermudagrass plant response rating” value (bermudagrass; [9]) was 40 and the “Plant response rating, Bermudagrass” value (bermudagrass; [10]) was 20. The “Bermudagrass plant response rating” value (bermudagrass; [11]) was 20, the “Bermudagrass plant response rating” value (bermudagrass; [12]) was 100 and the “Plant response rating, Bermudagrass” value (bermudagrass; [13]) was 10. For the same molecule, the “Plant response rating (0 = no effect, 100 = complete control), Surinam Grass” value (Surinam grass; 62 g ai/ha, preemergence) was 10, the “Plant response rating, Surinam Grass” value (Surinam grass; [8]) was 30 and the “Surinam Grass plant response rating” value (Surinam grass; Postemergence, scale 0 to 100) was 50. The “Plant response rating, Surinam Grass” value (Surinam grass; [14]) was 50, the “Surinam Grass plant response rating” value (Surinam grass; [15]) was 60 and the “Plant response rating, Surinam Grass” value (Surinam grass; [16]) was 40. The “Plant response rating, Surinam Grass” value (Surinam grass; [13]) was 30, the “Plant response rating (0 = no effect, 100 = complete control), Cupgrass, Woolly” value (woolly cupgrass; 62 g ai/ha, preemergence) was 0 and the “Plant response rating, Cupgrass, Woolly” value (woolly cupgrass; [7]) was 0. The “Plant response rating, Cupgrass, Woolly” value (woolly cupgrass; [8]) was 30, the “Cupgrass, Woolly plant response rating” value (woolly cupgrass; Postemergence, scale 0 to 100) was 60 and the “Plant response rating, Cupgrass, Woolly” value (woolly cupgrass; [10]) was 30. The “Plant response rating, Cupgrass, Woolly” value (woolly cupgrass; [14]) was 40, the “Cupgrass, Woolly plant response rating” value (woolly cupgrass; [15]) was 60 and the “Plant response rating, Cupgrass, Woolly” value (woolly cupgrass; [13]) was 30. The “Plant response rating (0 = no effect, 100 = complete control), Johnsongrass” value (johnsongrass; 62 g ai/ha, preemergence) was 0, the “Plant response rating, Johnsongrass” value (johnsongrass; [7]) was 30 and the “Plant response rating, Johnsongrass” value (johnsongrass; [8]) was 70. For the same molecule, the “Johnsongrass plant response rating” value (johnsongrass; Postemergence, scale 0 to 100) was 30, the “Plant response rating, Johnsongrass” value (johnsongrass; [10]) was 20 and the “Plant response rating, Johnsongrass” value (johnsongrass; [14]) was 30. The “Johnsongrass plant response rating” value (johnsongrass; [15]) was 90, the “Plant response rating, Johnsongrass” value (johnsongrass; [13]) was 20 and the “Morningglory plant response rating” value (morningglory; Postemergence, scale 0 to 100) was 70. For the same molecule, the “Plant response rating, Morningglory” value (morningglory; [14]) was 60, the “Morningglory plant response rating” value (morningglory; [15]) was 40 and the “Plant response rating, Morningglory” value (morningglory; [16]) was 50. The “Plant response rating, Morningglory” value (morningglory; [13]) was 50, the “Barnyardgrass plant response rating” value (barnyardgrass [2]; [17]) was 0 and the “Barnyardgrass plant response rating” value (barnyardgrass [2]; [18]) was 30. The “Plant response rating, Barnyardgrass” value (barnyardgrass [2]; [19]) was 70 and the “Plant response rating, Barnyardgrass” value (barnyardgrass [2]; [20]) was 75.
For `C=Cn1nc(C(C)(C)C)cc1C(=O)Nc1cccc(C(=O)N(CC)CC)c1` [Compound 34], the “Plant response rating, Barnyardgrass” value (barnyardgrass [1]; [21]) was 45, the “Plant response rating, Barnyardgrass” value (barnyardgrass [1]; [22]) was 80 and the “Barnyardgrass plant response rating” value (barnyardgrass [1]; [23]) was 55. For the same molecule, the “Barnyardgrass plant response rating” value (barnyardgrass [1]; [24]) was 80, the “Plant response rating, Crabgrass, Large” value (large crabgrass; [21]) was 30 and the “Plant response rating, Crabgrass, Large” value (large crabgrass; [22]) was 50. The “Crabgrass, Large plant response rating” value (large crabgrass; [23]) was 60, the “Crabgrass, Large plant response rating” value (large crabgrass; [24]) was 100 and the “Plant response rating, Foxtail, Giant” value (giant foxtail; [21]) was 30. For the same molecule, the “Plant response rating, Foxtail, Giant” value (giant foxtail; [22]) was 40, the “Foxtail, Giant plant response rating” value (giant foxtail; [23]) was 40 and the “Foxtail, Giant plant response rating” value (giant foxtail; [24]) was 85. The “Plant response rating, Pigweed” value (redroot pigweed; [21]) was 90, the “Plant response rating, Pigweed” value (redroot pigweed; [22]) was 90 and the “Pigweed plant response rating” value (redroot pigweed; [23]) was 100. For the same molecule, the “Pigweed plant response rating” value (redroot pigweed; [24]) was 100, the “Plant response rating (0 = no effect, 100 = complete control), Bermudagrass” value (bermudagrass; 62 g ai/ha, preemergence) was 20 and the “Plant response rating, Bermudagrass” value (bermudagrass; [7]) was 50. For the same molecule, the “Plant response rating, Bermudagrass” value (bermudagrass; [8]) was 90, the “Bermudagrass plant response rating” value (bermudagrass; [9]) was 50 and the “Plant response rating, Bermudagrass” value (bermudagrass; [10]) was 40. The “Bermudagrass plant response rating” value (bermudagrass; [11]) was 50, the “Bermudagrass plant response rating” value (bermudagrass; [12]) was 100 and the “Plant response rating, Bermudagrass” value (bermudagrass; [13]) was 10. For the same molecule, the “Plant response rating (0 = no effect, 100 = complete control), Surinam Grass” value (Surinam grass; 62 g ai/ha, preemergence) was 10, the “Plant response rating, Surinam Grass” value (Surinam grass; [8]) was 60 and the “Surinam Grass plant response rating” value (Surinam grass; Postemergence, scale 0 to 100) was 70. The “Plant response rating, Surinam Grass” value (Surinam grass; [14]) was 50, the “Surinam Grass plant response rating” value (Surinam grass; [15]) was 70 and the “Plant response rating, Surinam Grass” value (Surinam grass; [16]) was 30. The “Plant response rating, Surinam Grass” value (Surinam grass; [13]) was 20, the “Plant response rating (0 = no effect, 100 = complete control), Cupgrass, Woolly” value (woolly cupgrass; 62 g ai/ha, preemergence) was 10 and the “Plant response rating, Cupgrass, Woolly” value (woolly cupgrass; [7]) was 20. The “Plant response rating, Cupgrass, Woolly” value (woolly cupgrass; [8]) was 70, the “Cupgrass, Woolly plant response rating” value (woolly cupgrass; Postemergence, scale 0 to 100) was 90 and the “Plant response rating, Cupgrass, Woolly” value (woolly cupgrass; [10]) was 60. The “Plant response rating, Cupgrass, Woolly” value (woolly cupgrass; [14]) was 80, the “Cupgrass, Woolly plant response rating” value (woolly cupgrass; [15]) was 70 and the “Plant response rating, Cupgrass, Woolly” value (woolly cupgrass; [13]) was 40. The “Plant response rating (0 = no effect, 100 = complete control), Johnsongrass” value (johnsongrass; 62 g ai/ha, preemergence) was 50, the “Plant response rating, Johnsongrass” value (johnsongrass; [7]) was 80 and the “Plant response rating, Johnsongrass” value (johnsongrass; [8]) was 100. For the same molecule, the “Johnsongrass plant response rating” value (johnsongrass; Postemergence, scale 0 to 100) was 80, the “Plant response rating, Johnsongrass” value (johnsongrass; [10]) was 70 and the “Plant response rating, Johnsongrass” value (johnsongrass; [14]) was 70. The “Johnsongrass plant response rating” value (johnsongrass; [15]) was 100, the “Plant response rating, Johnsongrass” value (johnsongrass; [13]) was 70 and the “Plant response rating (0 = no effect, 100 = complete control), Morningglory” value (morningglory; 62 g ai/ha, preemergence) was 0. The “Plant response rating, Morningglory” value (morningglory; [8]) was 0, the “Morningglory plant response rating” value (morningglory; Postemergence, scale 0 to 100) was 40 and the “Plant response rating, Morningglory” value (morningglory; [14]) was 10. The “Morningglory plant response rating” value (morningglory; [15]) was 100, the “Plant response rating, Morningglory” value (morningglory; [16]) was 10 and the “Plant response rating, Morningglory” value (morningglory; [13]) was 10. For the same molecule, the “Barnyardgrass plant response rating” value (barnyardgrass [2]; [17]) was 0, the “Barnyardgrass plant response rating” value (barnyardgrass [2]; [18]) was 35 and the “Plant response rating, Barnyardgrass” value (barnyardgrass [2]; [19]) was 45. For the same molecule, the “Plant response rating, Barnyardgrass” value (barnyardgrass [2]; [20]) was 65.
